Assays:
Format in all cases: cell-based
[1] = system: normal human corneal epithelial cell; assay: Test Example 5: increase in cell number, normal human corneal epithelial cell, 24 hours (Cell Counting Kit-8); settings: no addition group = 100%, average ± standard deviation, N = 3 to 4
Protocol: A normal human corneal epithelial cell (KURABO) was used.
As the test substance, the following compounds were used. PPARδ agonist: L-165041 (Sigma-Aldrich), GW-501516 (Alexis)
In addition, as a positive control for confirming the cell proliferation promoting effect, a medium in which a mouse-derived epithelial growth factor (mEGF) contained in an HCGS proliferation additive set (KURABO) was added to a basal medium (basal medium+1 ng/mL mEGF) was used.
This cell suspension was seeded on a fibronectin-coated multiwell plate (24 well, BECTON DICKINSON) so that the cell number became 2×10^4 cells/500 μL/well (since the bottom area is 2 cm^2, the number is 1×10^4 cells/cm^2).
Further, 24 hours thereafter, the culture medium was exchanged with each 400 μL of the following culture media. • [1] Only basal medium (no addition group) • [2] Basal medium+mEGF (final concentration: 1 ng/mL; positive control group) • [3] Basal medium+L-165041 (final concentration: 0.01 μM and 0.1 μM) • [4] Basal medium+GW-501516 (final concentration: 0.001 μM and 0.01 μM)

[2] = system: rabbit corneal epithelial cell; assay: Test Example 1: increase in cell number, cultured rabbit corneal epithelial cell (Cell Counting Kit-8); settings: 48 hours, no addition group = 100%, average ± standard deviation, N = 5
Protocol: A male rabbit (Japanese white, […] LABES Co., Ltd.) was used. The experimental animal was used according to the International Guiding Principles for Biomedical Research Involving Animals.
A corneal epithelial cell was prepared from rabbit eyeballs. A cornea was excised from isolated eyeballs, and stored in Dulbecco's phosphate buffered saline (D-PBS; Invitrogen), and this was transferred to a clean bench. The following cell preparation procedures were all performed sterilely.
The isolated corneal segment was washed with D-PBS with 1% penicillin-streptomycin (Invitrogen) added thereto three times, and was transferred to a minimum essential medium (MEM; Invitrogen). A corneal endothelial cell and a Descemet's membrane of the corneal segment immersed in MEM were peeled with a knife (Alcon) for ocular operation, and the corneal segment (corneal stroma and corneal epithelium) after peeling was transferred to MEM to which dispase II (Roche Diagnostics) had been added to 2.4 U/mL. This was incubated at 37° C. for 1 hour and, thereafter, the dispase II-treated corneal segment was transferred to MEM. The corneal epithelium of the corneal segment immersed in MEM was peeled with the knife for ocular operation, and the corneal segment residue (corneal stroma) was removed from MEM. The peeled corneal epithelial cell and the MEM containing same were recovered in a 50 mL centrifuge tube, subjected to centrifugation at 1,500 rpm for 5 minutes at room temperature. The supernatant was discarded to give a corneal epithelial cell layer. To the corneal epithelial cell layer was added 1 mL of trypsin-EDTA (Invitrogen) and, after thorough mixing, the cells were incubated at 37° C. for 5 minutes to dissociate adhesion between the cells. To this was added 9 mL of MEM containing 10% fetal bovine serum (FBS; Invitrogen) to stop the enzymatic reaction, and this was subjected again to centrifugation at room temperature and 1,500 rpm for 5 minutes to obtain the corneal epithelial cell layer. To the resulting corneal epithelial cell layer was added […] of a serum-free liquid medium for proliferating a normal rabbit corneal epithelial cell (RCGM2; Kurabo Industries LTD.) to suspend the cell, and this was seeded into a culture dish (IWAKI) for culturing a cell having a diameter of 10 cm, to which 9 mL of RCGM2 had been added. […] The culture medium was exchanged with a fresh culture medium every 48 hours until the test day.
As the test substance, the following compounds were used. • PPARα agonist: WY-14643 (Calbiochem) and fenofibrate (Sigma-Aldrich) • PPARδ agonist: L-165041 (Sigma-Aldrich)
(§1) For studying the effect of promoting cell proliferation by each test substance, a culture medium prepared by removing a mouse-derived epithelial growth factor (mEGF) attached to RCGM2, from RCGM2, was used as a basal medium, while as a positive control for confirming the effect of promoting cell proliferation, a medium with an mEGF added thereto (basal medium+10 ng/mL mEGF) was used according to instructions of an RCGM2 preparation protocol.
As a culture dish for a test of cell proliferation promotion, a 96-well culture dish for tissue culture (Corning) was used. On the day before the test, each 50 μL of 0.01% type I collagen (Nitta Gelatin Inc.) was dispensed into each well of the culture dish, and coating was performed at 4° C. until immediately before the test. On the test day, after a type I collagen solution was removed, the bottom of the culture dish was washed three times using D-PBS, and this was used in the test as a collagen-treated culture dish.
In the test, a rabbit corneal epithelial cell which had been cultured to subconfluent in a culture dish having a diameter of 10 cm was used. After the culture medium was removed, the bottom of the culture dish was washed two times using D-PBS, to this was added 1 mL of trypsin-EDTA, this was incubated at 37° C. for 5 minutes and thereby, the cell was peeled from the bottom of the culture dish. […]

[3] = system: rabbit corneal epithelial cell; assay: Test Example 2: increase in cell number, cultured rabbit corneal epithelial cell, 120 hours (Cell Counting Kit-8); settings: no addition group = 100%, average ± standard deviation, N = 5
Protocol: A male rabbit (Japanese white, weight: about 1.5 kg, […] LABES Co., Ltd.) was used. The experimental animal was used according to the International Guiding Principles for Biomedical Research Involving Animals.
A rabbit corneal epithelial cell was prepared using the same process as that of (Test example 1).
As the test substance, the following compounds were used. • PPARδ agonist: L-165041 (Sigma-Aldrich) and GW-501516 (Alexis)
as §1
Collagen treatment of the culture dish was performed using the same process as that of (Test Example1).
In the test, a rabbit corneal epithelial cell which had been cultured to subconfluent in a culture dish having a diameter of 10 cm was used. After the culture medium was removed, the bottom of the culture dish was washed two times using D-PBS, to this was added 1 mL of trypsin-EDTA, this was incubated at 37° C. for 5 minutes and thereby, the cell was peeled from the bottom of the culture dish. After incubation, 9 mL of MEM containing 10% FBS was added to the culture dish to stop the enzymatic reaction, and this was subjected to centrifugation at room temperature and 1,500 rpm for 5 minutes to obtain a corneal epithelial cell layer. To the resulting cell was added an appropriate amount of RCGM2 to a cell concentration of 1×10^5 cells/mL to suspend the cell. Each 64 μL of this cell suspension was dispensed in each well at the cell number per bottom area (0.32 cm^2) of the collagen-treated 96-well culture dish for tissue culture of […]. […] After 24 hours from cell seeding, the culture medium was discarded, and each 100 μL of the following culture media were freshly dispensed into each well of the culture dish. • [1] Only basal medium (no addition group) • [2] Basal medium+mEGF (final concentration: 10 ng/mL; positive control group) • [3] Basal medium+L-165041 (final concentration: 0.1 μM and 1 μM) • [4] Basal medium+GW-501516 (final concentration: 0.01 μM and 0.1 μM)
The culture supernatant of each well was removed every 48 hours from exchange of the culture medium containing a test substance, and each 100 μL of the freshly prepared culture medium was dispensed into each well.

`CCCc1c(OCCCOc2ccc(OCC(=O)O)cc2)ccc(C(C)=O)c1O` [L-165041, (4-(3-(4-acetyl-3-hydroxy-2-propyl)phenoxy)propoxyphenoxy)acetic acid] was tested, and the “Cell proliferation (%)” value ([1]; 10^−7 M) was 127.8 ± 6.0%, the “Cell proliferation (%)” value ([1]; 10^−8 M) was 128.1 ± 5.3% and the “Cell proliferation (%)” value ([2]; 10^−6 M) was 182.2 ± 13.0%. The “Cell proliferation (%)” value ([2]; 10^−7 M) was 163.3 ± 8.2%, the “Cell proliferation (%)” value ([3]; 10^−6 M) was 198.6 ± 26.7% and the “Cell proliferation (%)” value ([3]; 10^−7 M) was 242.5 ± 36.2%.

— patent US9096538B2, “Pharmaceutical comprising PPAR agonist” (Senju Pharmaceutical Co., Ltd., priority 2005, dated 2015)
